According to patent publication US20130288964A1, “Use of peptides for promoting wound healing” (priority 2008, published 2013):
Where two headings read alike, the source gives them in different places. Where no end group is shown, it is not given here.

Assays:
[1] = test system: epithelial cells; assay: Internalization of FITC labeled histatin in epithelial cells (microscopy); format: cell-based, human; conditions: FITC labeled histatin incubated two hours (data not shown)
Description: Microscope: Leica DM IL PLAN 4-40x magnification, 0.5 lens; camera: Leica DFC320; and acquisition software: Leica IM500. Images were quantified using Adobe Photoshop CS3. Additionally, brightness/contrast levels of the co-localization studies were altered with Adobe Photoshop CS3. FITC labeled histatin was incubated with the cells for two hours. PI was added to check for membrane disruptive dependent internalization. 100 mM Azide was used for 1 hour. Cells were trypsinized as described above. Co-localization studies were performed using Mitotracker (Invitrogen) and Lysotracker (Invitrogen) following manufacturer's instructions. In Candida Histatin 5 is internalized and associates with the energized mitochondrion. Given the abovementioned discrepancy between C. albicans and epithelial cells we were very interested whether histatins become internalized and where in the cells they accumulate. […] NaN3 inhibits the function of cytochrome c oxidase by binding irreversibly to the heme cofactor. Thus, NaN3 treatment lead us to conclude that the internalization energy dependent. […] Which, in addition to the stereo-specificity, is indicating a receptor mediated process. We used mitochondria and acidic lysosome specific markers to elucidate histatin's fate once it is internalized

[2] = test system: human buccal epithelial cell line TR146; assay: In vitro wound healing (scratch wound closure) experiments; format: cell-based; conditions: for Wound closure rel. clos. ± SD: closure approx. 16 h after wounding relative to negative control, synthetic peptides in SFM, * significant
Description: The human buccal epithelial cell line TR146 (Rupniak et al; J Natl Cancer Inst. 1985 October; 75(4):621-35) was kindly provided by Cancer Research UK. Cells were grown in Dulbecco's modified Eagle medium with 4.5 g/l glucose (Invitrogen), 10% FCS (HyClone) and […] penicillin, […] streptomycin, and 250 ng/ml amphotericinB (Antibiotic antimyotic solution, Sigma,), at 37° C., 95% humidity and 5% CO2. Cells were maintained until near confluence and then briefly treated with 0.25% trypsin-EDTA lx (Invitrogen) to detach them, counted in a hepacytometer and seeded into new flasks or multi-well plates at the required cell density of about 1.5×10×5 cells/well.
Wound assays were performed as previously described (Matthay et al., 1993, J Cell Sci. 106 (Pt 3):869-78). In brief, cells were grown in 12-well plates until confluence, and then were serum deprived for 24 hours in keratinocyte serum free medium (SFM (Invitrogen)). In each well a scratch was made in the cellular monolayer using a sterile tip. The wounded monolayer was washed with SFM to remove cellular debris, and the following conditions were applied: • (i) Whole saliva and salivary secretions applied in 30% (v/v) in SFM. As a negative control 30% (v/v) saliva buffer was used. • (ii) (ii) rhEGF (Invitrogen) as a positive control • (iii) rp-HPLC fractions containing salivary proteins; • (iv) synthetic peptides: the experiments with isolated proteins and synthetic peptides were performed in full SFM.
The width of the wound area was determined microscopically immediately after wound creation and at approximately 16 hours after wounding. The relative closure was calculated by relating the closure to that of the negative control.
For inhibitor studies; directly after wounding cells were exposed to inhibitors of ERK1/2 (U0126, 5 μM, LC Laboratories), EGFR (AG1478, 1 μM, Calbiochem), and p38 MAPK (SB203580, 5 μM; LC Laboratories). Experiments were done in quadruplicate and analyzed using One-way ANOVA to determine significance with additional LSD post hoc test, P<0.05 was considered significant.

[3] = Candicidal activity LC50 ± SD
Description: 2.3 Potency of Histatin induced wound closure, stereo-specificity of Histatin 2, candidacidal activities of the different histatins. Next the potency of the different Histatins in both wound healing as their candidacidal activities was studied. Histatins are known for their antimicrobial activity.
We tested synthesized Histatins 1, 2, 3, 5 and the enantiomer of Histatin 2 (designated D-Histatin 2) on wound closure and candidacidal activities. In the test concentrations of 1, 5, 10, 30 and 50 μg/ml of the peptides were tested.

Molecule | internalization into epithelial cells [1] | Wound closure rel. clos. ± SD [2] | induction of wound closure ([2]; synthesized peptides, 1-50 μg/ml) | optimal concentration for wound closure ([2]; tested at 1, 5, 10, 30 and 50 μg/ml) | CC50 ([3]; 1 mM PPB) | CC50 ([3]; SFM) | relative wound closure ([2]; peptide concentration 1*10-3 μM, 1 = no peptide added (FIG. 4)) | induction of wound closure ([2]; EGF 5 ng/ml) | induced wound closure with EGF receptor blocked ([2]; EGFR inhibitor AG1478 1 μM) | MAPK pathway dependence of induced wound closure ([2]; inhibitors U0126 5 μM (ERK1/2), SB203580 5 μM (p38 MAPK), FIG. 2)
CC(C)C[C@H](NC(=O)[C@H](Cc1ccc(O)cc1)NC(=O)[C@H](CC(N)=O)NC(=O)[C@H](CO)NC(=O)[C@H](CCCNC(=N)N)NC(=O)[C@H](Cc1ccc(O)cc1)NC(=O)CNC(=O)[C@H](CCCNC(=N)N)NC(=O)[C@H](Cc1c[nH]cn1)NC(=O)[C@H](CO)NC(=O)[C@H](Cc1c[nH]cn1)NC(=O)[C@H](Cc1c[nH]cn1)NC(=O)[C@H](CCCCN)NC(=O)[C@H](CCC(=O)O)NC(=O)[C@H](Cc1c[nH]cn1)NC(=O)[C@H](Cc1ccccc1)NC(=O)[C@H](CCCCN)NC(=O)[C@H](CCCNC(=N)N)NC(=O)[C@H](CCCCN)NC(=O)[C@H](Cc1ccc(O)cc1)NC(=O)CNC(=O)[C@H](Cc1c[nH]cn1)NC(=O)[C@H](Cc1c[nH]cn1)NC(=O)[C@H](CCCNC(=N)N)NC(=O)[C@H](CCCCN)NC(=O)[C@H](C)NC(=O)[C@H](Cc1c[nH]cn1)NC(=O)[C@H](CO)NC(=O)[C@@H](N)CC(=O)O)C(=O)N[C@@H](Cc1ccc(O)cc1)C(=O)N[C@@H](CC(=O)O)C(=O)N[C@@H](CC(N)=O)C(=O)O [Histatin 3] | are internalized | 1.21 ± 0.12* | induce wound closure | 30 to 50 µg/mL | 1100 ± 100 nM | > 100000 nM |  |  |  | 
C-HST1: cyclic peptide having the amino acid sequence according to SEQ. ID. NO. 4, Histatin 1 (DSHEKRHHGYRRKFHEKHHSHREFPFYGDYGSNYLYDN; also: cyclic (type and places not given here)) |  |  |  |  |  |  | 1.5 |  |  | 
EGF: epidermal growth factor; rhEGF (Invitrogen) as a positive control |  | 1.41 ± 0.12* |  |  |  |  |  | able to induce wound closure | abolished the effect | p38^MAPK dependent
